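Interpolation was linear, between the two tested concentrations surrounding the appropriate level; five concentrations were tested over 48 hours in 96-well plates. Here, GI50 denotes the concentration required for 50% inhibition of growth.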 Calls of active or inactive are those of the source. Rule as the data show it: active = GI50 up to about 1.1 µM and inactive = higher.
How the values were obtained:
Test in all cases: NCI anticancer screen, dose series, 48 h
MOLT-4 = test system: MOLT-4
K562 = test system: K562
SW-620 = test system: SW-620
HT-29 = test system: HT-29
OVCAR-8 = test system: OVCAR-8
SF-295 = test system: SF-295
SN12C = test system: SN12C
HOP-92 = test system: HOP-92
TK-10 = test system: TK-10
SK-MEL-2 = test system: SK-MEL-2
NCI-H460 = test system: NCI-H460
A498 = test system: A498
SK-MEL-28 = test system: SK-MEL-28
A549 = test system: A549
UACC-62 = test system: UACC-62
786-0 = test system: 786-0
HOP-62 = test system: HOP-62

Measured: GI50

C[Si](C)(C)/C=C\CCCN1C(=O)CCC1=O
inactive: MOLT-4 > 100 µM | K562 60 µM | SW-620 > 100 µM | HT-29 > 100 µM | OVCAR-8 > 100 µM | SF-295 > 100 µM | SN12C > 100 µM | HOP-92 > 100 µM | TK-10 > 100 µM | SK-MEL-2 > 100 µM | NCI-H460 > 100 µM | A498 > 100 µM | SK-MEL-28 > 100 µM | A549 > 100 µM | UACC-62 > 100 µM | 786-0 > 100 µM

CN(CCO)c1nc2c(c(=O)[nH]1)CNCC2
inactive: MOLT-4 > 100 µM | K562 > 100 µM | SW-620 > 100 µM | HT-29 > 100 µM | OVCAR-8 > 100 µM | HOP-62 > 100 µM | SF-295 > 100 µM | SN12C > 100 µM | HOP-92 > 100 µM | TK-10 > 100 µM | SK-MEL-2 > 100 µM | NCI-H460 > 100 µM | SK-MEL-28 > 100 µM | A549 > 100 µM | UACC-62 > 100 µM | 786-0 > 100 µM

CC(=O)NS(=O)(=O)c1ccc(NC(=O)COC(=O)c2cccc3c(=O)c4ccccc4[nH]c23)cc1
inactive: MOLT-4 > 100 µM | K562 > 100 µM | SW-620 > 100 µM | HT-29 > 100 µM | OVCAR-8 > 100 µM | HOP-62 > 100 µM | SF-295 > 100 µM | SN12C > 100 µM | TK-10 > 100 µM | SK-MEL-2 > 100 µM | NCI-H460 > 100 µM | SK-MEL-28 > 100 µM | A549 > 100 µM | UACC-62 > 100 µM | 786-0 > 100 µM

COC(=O)C(=O)C(C(=O)C(=O)Nc1ccc(OC)cc1[N+](=O)[O-])c1nc2ccc([N+](=O)[O-])cc2nc1O (stereo unspecified)
inactive: MOLT-4 > 100 µM | K562 > 100 µM | SW-620 > 100 µM | HT-29 > 100 µM | OVCAR-8 > 100 µM | HOP-62 > 100 µM | SF-295 > 100 µM | SN12C > 100 µM | HOP-92 > 100 µM | TK-10 > 100 µM | NCI-H460 > 100 µM | A498 > 100 µM | A549 > 100 µM | UACC-62 > 100 µM | 786-0 > 100 µM

O[C@H]1[C@H]2[C@H](O)CCCN2C[C@H]1O [TRIDOLGOSIR]
inactive: MOLT-4 > 100 µM | SW-620 > 100 µM | HT-29 > 100 µM | OVCAR-8 > 100 µM | HOP-62 > 100 µM | SF-295 > 100 µM | SN12C > 100 µM | HOP-92 > 100 µM | TK-10 > 100 µM | SK-MEL-2 > 100 µM | NCI-H460 > 100 µM | A498 > 100 µM | SK-MEL-28 > 100 µM | A549 > 100 µM | UACC-62 > 100 µM | 786-0 > 100 µM

c1ccc(NCn2cnc3ccccc32)cc1
inactive: MOLT-4 > 100 µM | K562 20.8 µM | SW-620 35.6 µM | HT-29 36.3 µM | OVCAR-8 > 100 µM | SF-295 > 100 µM | SN12C > 100 µM | TK-10 > 100 µM | SK-MEL-2 > 100 µM | NCI-H460 > 100 µM | A498 > 100 µM | SK-MEL-28 > 100 µM | A549 > 100 µM | UACC-62 7.45 µM | 786-0 > 100 µM

COC(=O)C(=O)C(C(=O)C(=O)Nc1ccc(F)cc1)c1nc2ccc([N+](=O)[O-])cc2nc1O (stereo unspecified)
inactive: K562 > 100 µM | SW-620 > 100 µM | HT-29 > 100 µM | OVCAR-8 > 100 µM | HOP-62 > 100 µM | SF-295 > 100 µM | SN12C > 100 µM | HOP-92 > 100 µM | TK-10 > 100 µM | NCI-H460 > 100 µM | A498 > 100 µM | SK-MEL-28 > 100 µM | A549 > 100 µM | 786-0 > 100 µM

CCCCNc1nc(C#N)c(N)s1
inactive: MOLT-4 > 100 µM | K562 > 100 µM | SW-620 > 100 µM | HT-29 > 100 µM | OVCAR-8 > 100 µM | HOP-62 > 100 µM | SF-295 > 100 µM | SN12C > 100 µM | HOP-92 > 100 µM | TK-10 > 100 µM | SK-MEL-2 > 100 µM | NCI-H460 > 100 µM | SK-MEL-28 > 100 µM | A549 > 100 µM | UACC-62 > 100 µM | 786-0 > 100 µM

O=C(CC1(O)C(=O)Nc2ccc([N+](=O)[O-])cc21)c1ccncc1 (stereo unspecified)
inactive: MOLT-4 24.2 µM | K562 20.5 µM | SW-620 20.5 µM | HT-29 34 µM | OVCAR-8 46.2 µM | HOP-62 > 100 µM | SF-295 80.2 µM | SN12C 43.6 µM | TK-10 > 100 µM | SK-MEL-2 85.1 µM | NCI-H460 48.6 µM | A498 > 100 µM | SK-MEL-28 32.3 µM | A549 > 100 µM | UACC-62 29.2 µM | 786-0 69.7 µM

N#Cc1cccc(NC(=O)c2ccc(C(=O)O)c(C(=O)c3ccc(C(=O)O)c(C(=O)Nc4cccc(C#N)c4)c3)c2)c1
inactive: MOLT-4 > 100 µM | K562 > 100 µM | SW-620 > 100 µM | HT-29 > 100 µM | OVCAR-8 > 100 µM | HOP-62 > 100 µM | SF-295 > 100 µM | SN12C > 100 µM | HOP-92 > 100 µM | TK-10 > 100 µM | SK-MEL-2 > 100 µM | NCI-H460 > 100 µM | A498 > 100 µM | A549 > 100 µM | UACC-62 > 100 µM | 786-0 > 100 µM

C1CC[N+]23CCCC[N+]2(C1)CCCC3 (stereo unspecified)
inactive: MOLT-4 > 100 µM | K562 > 100 µM | SW-620 > 100 µM | HT-29 > 100 µM | OVCAR-8 > 100 µM | HOP-62 > 100 µM | SF-295 > 100 µM | SN12C > 100 µM | TK-10 > 100 µM | SK-MEL-2 > 100 µM | NCI-H460 > 100 µM | A498 > 100 µM | SK-MEL-28 > 100 µM | A549 > 100 µM | UACC-62 > 100 µM | 786-0 > 100 µM

Fc1ccc(C2SCc3nc4ccccc4n32)cc1F (stereo unspecified)
inactive: MOLT-4 21.4 µM | K562 24.2 µM | SW-620 39.4 µM | OVCAR-8 33.8 µM | HOP-62 35.8 µM | SF-295 40.5 µM | SN12C 41.7 µM | TK-10 26 µM | SK-MEL-2 23.8 µM | NCI-H460 37.4 µM | A498 36.2 µM | SK-MEL-28 23.4 µM | A549 33.6 µM | UACC-62 20.7 µM | 786-0 55.3 µM

CCOC(=O)/C(C#N)=C\Sc1ccccc1
inactive: MOLT-4 5.05 µM | K562 18.3 µM | SW-620 25.9 µM | HT-29 26 µM | OVCAR-8 13.7 µM | HOP-62 36.1 µM | SF-295 20 µM | SN12C 14 µM | HOP-92 37.2 µM | TK-10 32.4 µM | SK-MEL-2 25 µM | NCI-H460 26.4 µM | SK-MEL-28 14.7 µM | A549 10.4 µM | UACC-62 16.1 µM | 786-0 15.3 µM

Cc1ccccc1-n1c(=O)sc2c(=O)n(-c3ccccc3)c(=S)[nH]c21
inactive: MOLT-4 > 100 µM | K562 > 100 µM | SW-620 > 100 µM | HT-29 > 100 µM | OVCAR-8 > 100 µM | HOP-62 > 100 µM | SF-295 > 100 µM | SN12C > 100 µM | HOP-92 > 100 µM | SK-MEL-2 > 100 µM | NCI-H460 > 100 µM | A498 > 100 µM | SK-MEL-28 > 100 µM | A549 > 100 µM | UACC-62 > 100 µM | 786-0 > 100 µM

COc1cc(/C=N/N=C(\N)NO)cc(Cl)c1O
inactive: MOLT-4 50.2 µM | K562 53.2 µM | SW-620 99.3 µM | HT-29 > 100 µM | OVCAR-8 65.6 µM | HOP-62 35.7 µM | SF-295 58.7 µM | SN12C 48.8 µM | HOP-92 57.8 µM | SK-MEL-2 81.1 µM | NCI-H460 41.6 µM | A498 34.4 µM | SK-MEL-28 20.7 µM | A549 41.8 µM | UACC-62 42.4 µM | 786-0 43.7 µM

CC(c1ccccc1)C(O)S(=O)(=O)O (stereo unspecified)
inactive: MOLT-4 > 100 µM | K562 > 10 µM | SW-620 > 100 µM | HT-29 > 100 µM | OVCAR-8 > 100 µM | SF-295 > 100 µM | SN12C > 100 µM | HOP-92 > 100 µM | TK-10 > 100 µM | SK-MEL-2 > 100 µM | NCI-H460 88.3 µM | A498 > 100 µM | SK-MEL-28 > 100 µM | A549 > 100 µM | UACC-62 > 100 µM | 786-0 > 100 µM

Cc1cc([N+](=O)[O-])ccc1NC(=O)C(=O)C(C(=O)c1ccccc1-c1ccccc1)C1OC(=O)c2ccccc21 (stereo unspecified)
inactive: MOLT-4 15.6 µM | K562 25.4 µM | SW-620 18 µM | HT-29 18.8 µM | OVCAR-8 20.8 µM | SF-295 19.2 µM | SN12C 15.8 µM | HOP-92 16.9 µM | TK-10 17.8 µM | SK-MEL-2 12.6 µM | NCI-H460 17 µM | A498 > 10 µM | SK-MEL-28 14.8 µM | A549 10.8 µM | UACC-62 4.11 µM | 786-0 16.1 µM

From ChEMBL document CHEMBL1201862, “PubChem BioAssay data set” (2004)
